From PMC7316778 (Nature Communications, 2020)
Several values for one entry are separate records, joined by “and”; a condition that tells them apart may be missing. Equal values may be shown once. Read-outs that look alike come from different tables or passages of the source.

Experiments:
PTK2B (FAK2) = PTK2B (FAK2) (Homo sapiens, UniProt Q14289); assay: SelectScreen kinase assay
Method: (§1) Selectivity profiling assays were performed by the Invitrogen SelectScreen™ Services. […] The concentration of ATP was selected to be equal to the KM, unless indicated otherwise.

FES^S700C HL-60 cells = assay: CD11b surface expression, PMA-induced macrophage differentiation; type: cell-based, human; conditions: for CD11b-positive cells (%): Figure 6d, S700C
SGKL (SGK3) = SGKL (SGK3) (Homo sapiens, UniProt Q96BR1); assay: SelectScreen kinase assay
Method: as §1

MYO3A (MYO3 alpha) = MYO3A (MYO3 alpha) (Homo sapiens, UniProt Q8NEV4); assay: SelectScreen kinase assay
Method: as §1

DYRK1B = DYRK1B (Homo sapiens, UniProt Q9Y463); assay: SelectScreen kinase assay; conditions: 1 h, 1 μM WEL028, 1 h preincubation
Method: as §1

MAPK10 (JNK3) = MAPK10 (JNK3) (Homo sapiens, UniProt P53779); assay: SelectScreen kinase assay
Method: as §1

PIP5K1B = PIP5K1B (Homo sapiens, UniProt O14986); assay: SelectScreen kinase assay; conditions: for Inhibition at 1 µM (%): PIP5K1B, Adapta, ATP 10
Method: as §1

HUNK = target: T1, HUNK (Homo sapiens, UniProt P57058); assay: SelectScreen kinase assay
T1 sequence (P57058 1-714): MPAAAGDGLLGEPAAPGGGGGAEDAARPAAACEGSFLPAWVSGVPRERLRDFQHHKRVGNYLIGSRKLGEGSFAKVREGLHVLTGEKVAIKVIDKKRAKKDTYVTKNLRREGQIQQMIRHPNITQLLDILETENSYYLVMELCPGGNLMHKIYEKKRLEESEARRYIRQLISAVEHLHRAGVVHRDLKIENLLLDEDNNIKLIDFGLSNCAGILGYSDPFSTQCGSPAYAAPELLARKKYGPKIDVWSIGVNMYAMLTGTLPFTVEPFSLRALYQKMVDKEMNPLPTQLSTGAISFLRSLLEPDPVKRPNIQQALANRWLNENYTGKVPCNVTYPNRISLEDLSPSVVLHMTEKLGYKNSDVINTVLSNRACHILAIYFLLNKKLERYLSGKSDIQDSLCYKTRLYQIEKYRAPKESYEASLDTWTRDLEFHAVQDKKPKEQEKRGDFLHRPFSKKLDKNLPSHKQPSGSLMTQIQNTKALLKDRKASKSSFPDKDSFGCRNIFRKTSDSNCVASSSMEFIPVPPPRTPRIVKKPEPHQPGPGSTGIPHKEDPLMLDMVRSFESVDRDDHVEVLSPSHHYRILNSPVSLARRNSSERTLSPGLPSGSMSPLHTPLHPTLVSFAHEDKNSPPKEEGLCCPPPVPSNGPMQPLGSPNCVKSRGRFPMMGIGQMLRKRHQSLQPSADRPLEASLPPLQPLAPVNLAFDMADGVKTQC
Method: as §1

GAK = target: T2, GAK (Homo sapiens, UniProt O14976); assay: SelectScreen kinase assay
T2 sequence (O14976 1-1311): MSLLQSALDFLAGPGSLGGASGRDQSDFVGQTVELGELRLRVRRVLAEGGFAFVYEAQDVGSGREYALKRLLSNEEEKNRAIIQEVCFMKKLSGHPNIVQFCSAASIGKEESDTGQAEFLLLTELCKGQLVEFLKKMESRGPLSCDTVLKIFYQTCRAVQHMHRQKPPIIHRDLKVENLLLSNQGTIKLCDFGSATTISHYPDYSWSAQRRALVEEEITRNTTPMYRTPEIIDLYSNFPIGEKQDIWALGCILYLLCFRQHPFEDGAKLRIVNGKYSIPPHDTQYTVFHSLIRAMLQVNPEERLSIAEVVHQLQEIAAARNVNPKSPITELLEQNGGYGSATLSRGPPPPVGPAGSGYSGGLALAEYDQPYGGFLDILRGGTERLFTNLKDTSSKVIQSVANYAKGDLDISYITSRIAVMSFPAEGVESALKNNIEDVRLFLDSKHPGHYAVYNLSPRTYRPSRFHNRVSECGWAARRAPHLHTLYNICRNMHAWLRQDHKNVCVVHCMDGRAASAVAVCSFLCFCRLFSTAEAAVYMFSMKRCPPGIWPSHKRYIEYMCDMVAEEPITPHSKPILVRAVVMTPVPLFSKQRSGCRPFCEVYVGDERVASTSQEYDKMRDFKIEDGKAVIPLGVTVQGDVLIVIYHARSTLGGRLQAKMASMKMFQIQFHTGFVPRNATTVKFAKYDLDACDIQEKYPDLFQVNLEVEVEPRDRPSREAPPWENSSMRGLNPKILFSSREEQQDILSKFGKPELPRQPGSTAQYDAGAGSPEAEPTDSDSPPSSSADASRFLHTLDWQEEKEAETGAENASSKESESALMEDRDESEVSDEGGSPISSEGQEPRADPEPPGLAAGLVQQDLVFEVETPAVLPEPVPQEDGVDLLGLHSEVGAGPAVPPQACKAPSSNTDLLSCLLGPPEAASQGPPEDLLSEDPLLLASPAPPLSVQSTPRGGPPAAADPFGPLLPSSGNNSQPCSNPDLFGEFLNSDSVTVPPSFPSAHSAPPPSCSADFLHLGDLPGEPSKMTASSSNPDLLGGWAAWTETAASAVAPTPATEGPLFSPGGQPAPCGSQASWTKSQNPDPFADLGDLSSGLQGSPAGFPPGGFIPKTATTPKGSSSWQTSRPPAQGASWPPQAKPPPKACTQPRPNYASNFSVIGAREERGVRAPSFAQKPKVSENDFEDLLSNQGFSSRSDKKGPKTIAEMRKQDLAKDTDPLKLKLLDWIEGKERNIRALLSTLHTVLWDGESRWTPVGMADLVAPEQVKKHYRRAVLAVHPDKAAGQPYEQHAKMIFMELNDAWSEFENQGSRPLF
Method: as §1

MARK2 = MARK2 (Homo sapiens, UniProt Q7KZI7); assay: SelectScreen kinase assay
Method: as §1

[1] = 1 µM, ZLYTE, ATP Km app, listed as WEL028, 1 µM
[2] = 1 h, 1 μM WEL028, 1 h preincubation

Chain of MYO3A (MYO3 alpha) (Q8NEV4 whole entry): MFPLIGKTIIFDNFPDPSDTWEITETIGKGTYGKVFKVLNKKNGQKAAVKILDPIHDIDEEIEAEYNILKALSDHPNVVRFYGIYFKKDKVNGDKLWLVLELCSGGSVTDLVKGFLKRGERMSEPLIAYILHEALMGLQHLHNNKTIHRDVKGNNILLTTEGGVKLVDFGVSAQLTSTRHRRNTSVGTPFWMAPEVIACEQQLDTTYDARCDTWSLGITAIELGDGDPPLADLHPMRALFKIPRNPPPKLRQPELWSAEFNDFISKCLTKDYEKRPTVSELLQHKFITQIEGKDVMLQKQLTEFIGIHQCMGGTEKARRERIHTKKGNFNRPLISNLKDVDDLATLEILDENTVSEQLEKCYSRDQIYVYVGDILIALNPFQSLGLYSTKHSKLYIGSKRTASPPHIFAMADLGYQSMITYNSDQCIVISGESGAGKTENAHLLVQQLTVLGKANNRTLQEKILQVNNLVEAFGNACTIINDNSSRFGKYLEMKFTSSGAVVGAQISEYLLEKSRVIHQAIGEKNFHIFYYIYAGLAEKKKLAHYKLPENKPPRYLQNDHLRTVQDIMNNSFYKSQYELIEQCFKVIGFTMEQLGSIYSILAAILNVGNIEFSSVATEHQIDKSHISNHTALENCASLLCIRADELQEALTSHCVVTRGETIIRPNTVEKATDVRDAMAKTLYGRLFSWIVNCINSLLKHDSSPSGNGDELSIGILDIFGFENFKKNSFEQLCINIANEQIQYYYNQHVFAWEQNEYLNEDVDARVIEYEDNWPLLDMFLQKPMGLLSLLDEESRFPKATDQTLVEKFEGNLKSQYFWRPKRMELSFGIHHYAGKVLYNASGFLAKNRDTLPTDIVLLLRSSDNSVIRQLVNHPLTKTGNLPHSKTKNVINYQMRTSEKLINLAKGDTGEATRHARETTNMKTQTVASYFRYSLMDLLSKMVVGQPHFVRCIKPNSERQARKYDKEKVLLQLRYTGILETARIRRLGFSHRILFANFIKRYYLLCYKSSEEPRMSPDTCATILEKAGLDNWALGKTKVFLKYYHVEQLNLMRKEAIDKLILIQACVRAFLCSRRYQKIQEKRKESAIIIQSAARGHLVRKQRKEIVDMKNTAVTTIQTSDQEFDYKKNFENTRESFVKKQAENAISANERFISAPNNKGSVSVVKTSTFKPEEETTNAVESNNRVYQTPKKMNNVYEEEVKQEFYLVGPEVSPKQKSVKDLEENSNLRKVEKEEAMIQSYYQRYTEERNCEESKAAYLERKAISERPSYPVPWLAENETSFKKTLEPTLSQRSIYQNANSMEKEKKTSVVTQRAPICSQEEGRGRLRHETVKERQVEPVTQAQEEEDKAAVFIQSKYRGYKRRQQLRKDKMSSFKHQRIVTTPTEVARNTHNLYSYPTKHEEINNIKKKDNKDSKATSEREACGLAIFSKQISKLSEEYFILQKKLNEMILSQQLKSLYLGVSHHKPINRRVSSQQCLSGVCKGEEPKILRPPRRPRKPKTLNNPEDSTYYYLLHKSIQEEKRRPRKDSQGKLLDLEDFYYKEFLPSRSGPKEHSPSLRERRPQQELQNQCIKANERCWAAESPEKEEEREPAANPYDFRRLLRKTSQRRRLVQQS
Chain of MARK2 (Q7KZI7 whole entry): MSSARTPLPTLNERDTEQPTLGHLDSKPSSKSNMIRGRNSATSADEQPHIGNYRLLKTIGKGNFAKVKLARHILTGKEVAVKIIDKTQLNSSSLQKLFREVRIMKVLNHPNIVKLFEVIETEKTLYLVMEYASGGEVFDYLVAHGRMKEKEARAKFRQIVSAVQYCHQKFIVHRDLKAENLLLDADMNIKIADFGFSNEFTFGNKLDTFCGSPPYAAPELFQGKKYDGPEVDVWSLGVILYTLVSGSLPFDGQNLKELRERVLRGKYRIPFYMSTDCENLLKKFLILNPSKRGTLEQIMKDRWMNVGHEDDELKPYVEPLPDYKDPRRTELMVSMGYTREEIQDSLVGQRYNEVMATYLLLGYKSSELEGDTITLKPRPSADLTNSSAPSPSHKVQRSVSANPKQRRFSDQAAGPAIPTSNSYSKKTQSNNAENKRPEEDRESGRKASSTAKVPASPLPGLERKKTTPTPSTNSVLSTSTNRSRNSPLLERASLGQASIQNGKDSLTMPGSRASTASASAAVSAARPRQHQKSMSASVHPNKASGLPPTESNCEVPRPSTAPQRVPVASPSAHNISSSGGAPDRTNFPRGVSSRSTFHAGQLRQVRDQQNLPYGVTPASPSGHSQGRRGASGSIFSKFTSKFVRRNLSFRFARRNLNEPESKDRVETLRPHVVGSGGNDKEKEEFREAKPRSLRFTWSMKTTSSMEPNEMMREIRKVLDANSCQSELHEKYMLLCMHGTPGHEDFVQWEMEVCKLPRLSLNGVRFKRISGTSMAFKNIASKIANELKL
Chain of PTK2B (FAK2) (Q14289 whole entry): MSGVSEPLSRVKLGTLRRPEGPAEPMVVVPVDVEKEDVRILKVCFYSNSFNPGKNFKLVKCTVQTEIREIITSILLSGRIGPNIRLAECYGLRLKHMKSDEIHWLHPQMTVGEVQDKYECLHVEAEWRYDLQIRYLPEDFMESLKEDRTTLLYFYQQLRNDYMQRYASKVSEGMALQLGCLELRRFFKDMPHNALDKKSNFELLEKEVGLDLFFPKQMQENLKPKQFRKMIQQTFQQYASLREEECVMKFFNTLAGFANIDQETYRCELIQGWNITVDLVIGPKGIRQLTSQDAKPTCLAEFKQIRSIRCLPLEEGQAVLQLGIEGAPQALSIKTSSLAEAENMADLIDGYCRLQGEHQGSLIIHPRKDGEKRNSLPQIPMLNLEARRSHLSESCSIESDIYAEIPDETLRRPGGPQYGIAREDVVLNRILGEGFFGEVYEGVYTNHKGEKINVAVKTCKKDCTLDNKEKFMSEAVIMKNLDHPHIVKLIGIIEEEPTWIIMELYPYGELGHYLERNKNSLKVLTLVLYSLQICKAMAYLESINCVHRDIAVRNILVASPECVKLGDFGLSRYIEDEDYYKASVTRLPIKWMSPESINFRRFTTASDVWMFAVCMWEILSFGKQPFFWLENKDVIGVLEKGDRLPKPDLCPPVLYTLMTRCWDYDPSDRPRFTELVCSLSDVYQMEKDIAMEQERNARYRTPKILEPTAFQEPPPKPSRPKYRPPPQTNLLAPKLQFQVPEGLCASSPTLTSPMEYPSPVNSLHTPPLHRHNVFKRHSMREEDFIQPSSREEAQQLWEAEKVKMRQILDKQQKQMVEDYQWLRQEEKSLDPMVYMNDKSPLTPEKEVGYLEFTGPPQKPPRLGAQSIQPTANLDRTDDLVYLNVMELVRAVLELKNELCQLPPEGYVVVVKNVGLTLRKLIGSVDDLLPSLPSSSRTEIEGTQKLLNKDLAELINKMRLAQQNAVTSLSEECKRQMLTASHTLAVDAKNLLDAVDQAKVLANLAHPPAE
Chain of SGKL (SGK3) (Q96BR1 whole entry): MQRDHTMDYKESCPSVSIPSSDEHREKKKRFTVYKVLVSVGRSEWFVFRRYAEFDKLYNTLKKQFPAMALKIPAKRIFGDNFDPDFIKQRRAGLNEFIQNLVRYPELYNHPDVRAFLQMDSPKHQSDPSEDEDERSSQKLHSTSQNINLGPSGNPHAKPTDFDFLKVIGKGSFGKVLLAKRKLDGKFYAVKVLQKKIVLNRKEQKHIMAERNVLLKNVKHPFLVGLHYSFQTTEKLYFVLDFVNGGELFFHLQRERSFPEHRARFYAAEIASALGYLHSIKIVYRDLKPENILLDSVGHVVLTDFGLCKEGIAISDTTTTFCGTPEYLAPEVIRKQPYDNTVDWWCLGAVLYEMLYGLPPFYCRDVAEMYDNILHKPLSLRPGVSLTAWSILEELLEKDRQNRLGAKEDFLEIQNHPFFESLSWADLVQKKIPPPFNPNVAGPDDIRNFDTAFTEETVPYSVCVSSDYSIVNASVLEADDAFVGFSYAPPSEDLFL
Chain of PIP5K1B (O14986 whole entry): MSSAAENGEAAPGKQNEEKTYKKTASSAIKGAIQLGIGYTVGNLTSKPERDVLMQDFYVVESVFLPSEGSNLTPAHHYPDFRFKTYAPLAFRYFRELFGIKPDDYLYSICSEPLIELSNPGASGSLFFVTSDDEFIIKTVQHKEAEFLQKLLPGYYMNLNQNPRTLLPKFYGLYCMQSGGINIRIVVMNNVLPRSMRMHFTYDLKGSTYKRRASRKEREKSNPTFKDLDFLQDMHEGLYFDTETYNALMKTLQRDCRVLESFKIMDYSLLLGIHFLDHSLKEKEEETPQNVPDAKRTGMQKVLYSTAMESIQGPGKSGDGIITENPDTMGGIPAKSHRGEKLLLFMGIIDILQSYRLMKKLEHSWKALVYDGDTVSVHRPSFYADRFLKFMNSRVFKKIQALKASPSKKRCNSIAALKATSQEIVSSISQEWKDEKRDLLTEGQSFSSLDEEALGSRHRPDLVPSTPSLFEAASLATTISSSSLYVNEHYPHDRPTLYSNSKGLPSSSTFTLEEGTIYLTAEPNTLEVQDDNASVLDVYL
Chain of MAPK10 (JNK3) (P53779 whole entry): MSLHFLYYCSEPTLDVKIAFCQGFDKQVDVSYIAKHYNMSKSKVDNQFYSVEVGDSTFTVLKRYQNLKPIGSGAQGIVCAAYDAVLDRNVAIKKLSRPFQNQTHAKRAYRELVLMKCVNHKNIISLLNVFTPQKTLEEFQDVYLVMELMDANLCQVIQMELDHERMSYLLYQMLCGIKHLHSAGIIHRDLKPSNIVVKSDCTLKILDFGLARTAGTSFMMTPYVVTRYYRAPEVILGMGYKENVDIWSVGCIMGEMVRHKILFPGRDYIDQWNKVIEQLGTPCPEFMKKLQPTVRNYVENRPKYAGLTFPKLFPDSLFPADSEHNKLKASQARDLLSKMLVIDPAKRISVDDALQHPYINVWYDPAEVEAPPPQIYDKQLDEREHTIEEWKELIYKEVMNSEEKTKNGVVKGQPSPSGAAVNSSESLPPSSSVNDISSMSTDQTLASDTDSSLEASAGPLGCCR

C#CCOc1ccc(Nc2ncc(Cl)c(Nc3ccccc3NC(=O)C=C)n2)c(OC)c1 [Compound 6]
Inhibition at 1 µM (%) (PTK2B (FAK2); [1]): 37%
inhibition at 1 µM (PTK2B (FAK2); [2]): 34%
inhibition at 1 µM (PTK2B (FAK2); read-out: Inhibition at 1 µM (%), 1 µM, ZLYTE, ATP Km app): 32%
Increase in CD11b expression (FES^S700C HL-60 cells; 100 nM WEL028): 3%
Percentage of CD11b-positive cells (FES^S700C HL-60 cells; 100 nM WEL028): minimally affected
CD11b expression (FES^S700C HL-60 cells; 1 µM WEL028): completely failed to express CD11b
CD11b-positive cells (%) (FES^S700C HL-60 cells; WEL028 100 nM): 93.479% and 95.735% and 92.126%
CD11b-positive cells (%) (FES^S700C HL-60 cells; WEL028 1 µM): 19.047% and 18.635% and 20.613%
Inhibition at 1 µM (%) (SGKL (SGK3); [1]): -12% and -2%
inhibition at 1 µM (SGKL (SGK3); [2]): -7%
inhibition at 1 µM (MYO3A (MYO3 alpha); [2]): 17%
Inhibition at 1 µM (%) (MYO3A (MYO3 alpha); MYO3A (MYO3 alpha), 1 µM, LanthaScreen Binding, listed as WEL028, 1 µM): 16%
inhibition at 1 µM (MYO3A (MYO3 alpha); read-out: Inhibition at 1 µM (%), MYO3A (MYO3 alpha), 1 µM, LanthaScreen Binding): 18%
inhibition at 1 µM (DYRK1B): 0%
Inhibition (%) (MAPK10 (JNK3); 1 μM WEL028, 1 h preincubation): -7%
Inhibition at 1 µM (%) (MAPK10 (JNK3); MAPK10 (JNK3), 1 µM, ZLYTE, ATP 100): -14%
inhibition at 1 µM (PIP5K1B; [2]): -11%
Inhibition at 1 µM (%) (PIP5K1B): -13%
Inhibition at 1 µM (%) (PIP5K1B; listed as WEL028, 1 µM): -9%
inhibition at 1 µM (HUNK; [2]): 20%
Inhibition at 1 µM (%) (HUNK; HUNK, 1 µM, LanthaScreen Binding, listed as WEL028, 1 µM): 21%
inhibition at 1 µM (HUNK; read-out: Inhibition at 1 µM (%), HUNK, 1 µM, LanthaScreen Binding): 19%
IC50 (GAK): 12.6 nM
inhibition at 1 µM (GAK; [2]): 108%
Inhibition at 1 µM (%) (GAK; GAK, 1 µM, LanthaScreen Binding, listed as WEL028, 1 µM): 109%
Apparent fold selectivity (GAK; IC50 on that kinase divided by IC50 on FES^S700C): 3 fold
inhibition at 1 µM (GAK; read-out: Inhibition at 1 µM (%), GAK, 1 µM, LanthaScreen Binding): 108%
inhibition at 1 µM (MARK2; [2]): 8%
Inhibition at 1 µM (%) (MARK2; MARK2, 1 µM, ZLYTE, ATP Km app, listed as WEL028, 1 µM): 9%
inhibition at 1 µM (MARK2; read-out: Inhibition at 1 µM (%), MARK2, 1 µM, ZLYTE, ATP Km app): 6%
